Experimental data published in the supplement of paper PMC10307832.

Assays:
Assay in all cases: relative viability (nuclei count vs DMSO), 5 days (fraction); higher = more cells survive
Dabrafenib + Pictilisib = compound: CC(C)(C)c1nc(-c2cccc(NS(=O)(=O)c3c(F)cccc3F)c2F)c(-c2ccnc(N)n2)s1 [Dabrafenib] + CS(=O)(=O)N1CCN(Cc2cc3nc(-c4cccc5[nH]ncc45)nc(N4CCOCC4)c3s2)CC1 [Pictilisib] (partner 1 µM)
How it was run: (§1)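 Lung cancer cell lines, seeded in 1536-well plates, were treated the following day by pin tool with a single drug or with five library-drug doses (not always all listed) in √10 steps on top of a fixed anchor-drug dose. Cells were fixed and nuclei stained in one step after 5 days, and nuclei were counted. Relative viability is the nuclei count for treated wells divided by that for vehicle wells, reported as medians of duplicate plates.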

Dabrafenib + Lapatinib = compound: CC(C)(C)c1nc(-c2cccc(NS(=O)(=O)c3c(F)cccc3F)c2F)c(-c2ccnc(N)n2)s1 [Dabrafenib] + CS(=O)(=O)CCNCc1ccc(-c2ccc3ncnc(Nc4ccc(OCc5cccc(F)c5)c(Cl)c4)c3c2)o1 [Lapatinib] (partner 2 µM)
How it was run: as §1

VX-702 + Lapatinib = compound: NC(=O)c1ccc(N(C(N)=O)c2c(F)cccc2F)nc1-c1ccc(F)cc1F [VX-702] + CS(=O)(=O)CCNCc1ccc(-c2ccc3ncnc(Nc4ccc(OCc5cccc(F)c5)c(Cl)c4)c3c2)o1 [Lapatinib] (partner 2 µM)
How it was run: as §1

VX-702 + Alpelisib = compound: NC(=O)c1ccc(N(C(N)=O)c2c(F)cccc2F)nc1-c1ccc(F)cc1F [VX-702] + Cc1nc(NC(=O)N2CCC[C@H]2C(N)=O)sc1-c1ccnc(C(C)(C)C(F)(F)F)c1 [Alpelisib] (partner 2 µM)
How it was run: as §1

Row | Cell Line | relative viability (Dabrafenib + Pictilisib; first compound 0.009487 µM) | relative viability (Dabrafenib + Pictilisib; first compound 0.03 µM) | relative viability (Dabrafenib + Pictilisib; first compound 0.09487 µM) | relative viability (Dabrafenib + Pictilisib; first compound 0.3 µM) | relative viability (Dabrafenib + Lapatinib; first compound 0.009487 µM) | relative viability (Dabrafenib + Lapatinib; first compound 0.03 µM) | relative viability (Dabrafenib + Lapatinib; first compound 0.09487 µM) | relative viability (Dabrafenib + Lapatinib; first compound 0.3 µM) | relative viability (Dabrafenib + Pictilisib; first compound 0.003 µM) | relative viability (VX-702 + Lapatinib; first compound 0.02 µM) | relative viability (VX-702 + Lapatinib; first compound 0.2 µM) | relative viability (VX-702 + Lapatinib; first compound 0.6325 µM) | relative viability (VX-702 + Lapatinib; first compound 2 µM) | relative viability (VX-702 + Alpelisib; first compound 0.02 µM) | relative viability (VX-702 + Alpelisib; first compound 0.2 µM) | relative viability (VX-702 + Alpelisib; first compound 0.6325 µM) | relative viability (VX-702 + Alpelisib; first compound 2 µM) | relative viability (Dabrafenib + Lapatinib; first compound 0.003 µM)
1 | ChaGo-K-1 | 0.591 | 0.749 | 0.721 | 0.933 | – | – | – | – | – | – | – | – | – | – | – | – | – | –
2 | EBC-1 | 0.37 | 0.272 | 0.184 | 0.227 | 0.233 | 0.223 | 0.23 | 0.274 | 0.397 | 0.228 | 0.175 | 0.188 | 0.188 | 0.777 | 0.835 | 0.687 | 0.892 | –
3 | EKVX | 0.458 | 0.38 | 0.495 | 0.59 | 0.245 | 0.192 | 0.203 | 0.321 | 0.413 | 0.215 | 0.22 | 0.226 | 0.127 | 0.814 | 0.801 | 0.73 | 0.855 | 0.172
4 | EMC-BAC-2 | 0.434 | 0.389 | 0.585 | 0.623 | 0.775 | 0.877 | 0.926 | 0.916 | 0.52 | 0.924 | 0.947 | 0.906 | 0.883 | 0.766 | 0.671 | 0.723 | 0.852 | 0.87
5 | EPLC-272H | 0.212 | 0.288 | 0.414 | 0.369 | 0.882 | 1 | 0.765 | 1.18 | – | 1.09 | 0.751 | 1.1 | 1.59 | 0.982 | 0.752 | 0.965 | 1.01 | –
6 | H3255 | 0.566 | 0.43 | 0.405 | 0.462 | 0.264 | 0.213 | 0.316 | 0.247 | 0.394 | 0.24 | 0.254 | 0.26 | 0.241 | 0.727 | 0.78 | 0.723 | 0.907 | 0.186
7 | HARA | 0.629 | 0.325 | 0.399 | 0.605 | 0.683 | 0.565 | 0.751 | 0.955 | 0.327 | 0.653 | 0.69 | 0.91 | 0.825 | 0.789 | 0.832 | 0.836 | 0.921 | 0.648
8 | LCLC-103H | 0.657 | 0.426 | 0.721 | 0.71 | – | – | – | – | 0.556 | – | – | – | – | 0.964 | 0.949 | 0.977 | 0.9 | –
9 | NCI-H441 | 0.54 | 0.406 | 0.374 | 0.401 | – | – | – | – | – | – | – | – | – | 0.847 | 0.537 | 0.727 | 0.759 | –
10 | NCI-H1650 | 0.841 | 0.404 | 0.647 | 0.814 | 1.12 | 0.639 | 0.953 | 1.11 | 0.401 | 0.808 | 0.469 | 0.818 | 0.907 | – | – | – | – | 0.632
